# Source: patent publication US8987268B2, “Pyrrolopyridazine JAK3 inhibitors and their use for the treatment of inflammatory and autoimmune diseases” (Bristol-Myers Squibb Company, priority 2011, dated 2015)
# Experiments:
# GST-JAK3 enzyme = GST-JAK3 enzyme (Homo sapiens (Human), UniProt P52333); test: JAK3 Kinase Assay Protocol (Caliper); format: biochemical; details: JAK3 kinase inhibition; read-out: LLE_JAK3_FB (IC50)
# Description: JAK3 Kinase Assay Protocol (Caliper)
# (§1) The assay reactions were performed in U-bottom 384-well plates. […] The reaction was initiated by the combination of GST-JAK3 enzyme with substrates and test compounds. The reactions were incubated at room temperature for 3 hours and terminated by adding 60 μl of 35 mM EDTA to each sample. Each reaction mixture was analyzed on the Caliper LabChip 3000 (Caliper, Hopkinton, Mass.) by electrophoretic separation of the fluorescent substrate and phosphorylated product. […] Compounds were dissolved at 10 mM in dimethylsulfoxide (DMSO) and evaluated at eleven concentrations. IC50 values were derived by non-linear regression analysis.
# GST-JAK1 enzyme = GST-JAK1 enzyme (Homo sapiens (Human), UniProt P23458); test: JAK1 Kinase Assay Protocol; format: biochemical; details: JAK1 kinase inhibition; read-out: LLE_JAK1 (IC50)
# Sequence of GST-JAK1 enzyme (P23458 whole entry): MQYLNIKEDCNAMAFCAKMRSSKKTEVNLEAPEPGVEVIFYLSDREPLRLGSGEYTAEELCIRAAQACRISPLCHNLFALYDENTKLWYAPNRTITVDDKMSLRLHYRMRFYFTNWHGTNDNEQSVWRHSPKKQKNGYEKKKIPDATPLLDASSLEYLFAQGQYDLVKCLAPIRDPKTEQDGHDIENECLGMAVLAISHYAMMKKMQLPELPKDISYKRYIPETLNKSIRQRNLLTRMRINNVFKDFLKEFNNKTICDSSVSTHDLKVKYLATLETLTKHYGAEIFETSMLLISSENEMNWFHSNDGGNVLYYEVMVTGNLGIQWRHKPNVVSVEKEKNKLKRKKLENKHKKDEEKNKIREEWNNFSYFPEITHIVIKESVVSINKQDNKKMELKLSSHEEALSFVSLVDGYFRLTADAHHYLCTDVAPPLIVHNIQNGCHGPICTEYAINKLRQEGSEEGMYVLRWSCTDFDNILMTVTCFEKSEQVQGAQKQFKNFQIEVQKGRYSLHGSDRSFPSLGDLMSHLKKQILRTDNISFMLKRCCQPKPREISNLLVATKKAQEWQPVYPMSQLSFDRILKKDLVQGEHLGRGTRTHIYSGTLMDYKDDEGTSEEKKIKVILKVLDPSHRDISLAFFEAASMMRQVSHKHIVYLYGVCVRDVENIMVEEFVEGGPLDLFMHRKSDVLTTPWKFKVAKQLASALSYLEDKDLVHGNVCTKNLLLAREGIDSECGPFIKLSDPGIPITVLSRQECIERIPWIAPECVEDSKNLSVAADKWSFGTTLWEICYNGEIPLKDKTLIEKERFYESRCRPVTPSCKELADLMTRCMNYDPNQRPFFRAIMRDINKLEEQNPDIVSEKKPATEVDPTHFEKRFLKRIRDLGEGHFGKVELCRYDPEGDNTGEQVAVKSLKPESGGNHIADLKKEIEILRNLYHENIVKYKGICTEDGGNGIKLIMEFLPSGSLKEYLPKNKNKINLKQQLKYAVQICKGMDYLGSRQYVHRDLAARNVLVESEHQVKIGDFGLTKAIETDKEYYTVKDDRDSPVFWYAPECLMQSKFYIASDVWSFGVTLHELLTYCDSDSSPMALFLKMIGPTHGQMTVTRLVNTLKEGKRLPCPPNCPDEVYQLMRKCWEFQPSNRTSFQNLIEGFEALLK
# Description: JAK1 Kinase Assay Protocol
# as §1, with “GST-JAK1” for “GST-JAK3”
# Sequence of GST-JAK3 enzyme (P52333 whole entry): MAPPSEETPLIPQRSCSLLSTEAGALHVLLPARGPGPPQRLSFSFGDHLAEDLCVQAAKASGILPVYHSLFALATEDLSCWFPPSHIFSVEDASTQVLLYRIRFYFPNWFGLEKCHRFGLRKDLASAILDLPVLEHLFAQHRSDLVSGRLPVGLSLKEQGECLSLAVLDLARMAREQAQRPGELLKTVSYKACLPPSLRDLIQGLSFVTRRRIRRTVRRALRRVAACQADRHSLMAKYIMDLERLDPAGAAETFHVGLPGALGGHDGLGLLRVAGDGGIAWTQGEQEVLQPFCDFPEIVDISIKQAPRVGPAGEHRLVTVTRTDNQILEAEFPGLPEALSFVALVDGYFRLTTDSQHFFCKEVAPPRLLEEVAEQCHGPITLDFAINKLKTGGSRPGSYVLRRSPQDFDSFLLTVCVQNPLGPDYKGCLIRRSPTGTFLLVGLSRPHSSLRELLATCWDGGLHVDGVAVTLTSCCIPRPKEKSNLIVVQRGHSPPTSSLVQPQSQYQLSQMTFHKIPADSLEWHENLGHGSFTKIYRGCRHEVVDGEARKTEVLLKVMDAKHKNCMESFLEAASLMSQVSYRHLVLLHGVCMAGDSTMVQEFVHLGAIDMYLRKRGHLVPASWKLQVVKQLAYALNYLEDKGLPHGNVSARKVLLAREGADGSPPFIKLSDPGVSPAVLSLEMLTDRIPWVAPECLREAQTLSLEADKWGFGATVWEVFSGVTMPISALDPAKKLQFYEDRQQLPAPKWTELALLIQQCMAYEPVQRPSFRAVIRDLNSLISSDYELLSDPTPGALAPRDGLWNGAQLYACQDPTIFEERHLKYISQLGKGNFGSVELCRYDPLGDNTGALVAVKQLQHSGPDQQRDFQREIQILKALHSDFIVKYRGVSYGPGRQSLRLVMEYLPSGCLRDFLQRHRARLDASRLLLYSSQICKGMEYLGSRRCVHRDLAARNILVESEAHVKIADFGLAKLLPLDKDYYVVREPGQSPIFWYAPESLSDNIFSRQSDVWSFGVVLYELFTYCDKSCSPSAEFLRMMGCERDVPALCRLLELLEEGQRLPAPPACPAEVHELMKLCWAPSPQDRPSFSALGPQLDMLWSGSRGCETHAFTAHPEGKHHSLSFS
SMILES,IC50 (GST-JAK3 enzyme),IC50 (GST-JAK1 enzyme)
"CC1(F)COCC1Nc1c(C(N)=O)cnn2cc(N3CCCC3=O)cc12 (stereo not shown) [Example 40, 4-(4-fluoro-4-methyltetrahydrofuran-3-ylamino)-6-(2-oxopyrrolidin-1-yl)pyrrolo[1,2-b]pyridazine-3-carboxamide]",15.1 nM,40.3 nM
"CC[C@@H]1CN(C(=O)[C@H](C)O)CC[C@H]1Nc1c(C(N)=O)cnn2cc(-c3cnn(CC(C)C)c3)cc12 [Example 137, 4-((3R,4R)-3-ethyl-1-((S)-2-hydroxypropanoyl)piperidin-4-ylamino)-6-(1-isobutyl-1H-pyrazol-4-yl)pyrrolo[1,2-b]pyridazine-3-carboxamide]",1.4 nM,2 nM
"NC(=O)c1cnn2cc(-c3cccnc3)cc2c1NC1CCOCC1 [Example 31, 6-(3-pyridinyl)-4-(tetrahydro-2H-pyran-4-ylamino)pyrrolo[1,2-b]pyridazine-3-carboxamide]",70 nM,120 nM
"CC1(C)CN(c2ccc(C#N)cn2)CC[C@H]1Nc1c(C(N)=O)cnn2cc(N3CC[C@@H](O)C3=O)cc12 [Example 105, 4-((R)-1-(5-cyanopyridin-2-yl)-3,3-dimethylpiperidin-4-ylamino)-6-((R)-3-hydroxy-2-oxopyrrolidin-1-yl)pyrrolo[1,2-b]pyridazine-3-carboxamide]",0.2 nM,0.7 nM
"CC[C@@H]1CN(C(=O)[C@@H](C)O)CC[C@H]1Nc1c(C(N)=O)cnn2cc(-c3cnn(C)c3)cc12 [Example 152, 4-((3R,4R)-3-ethyl-1-((R)-2-hydroxypropanoyl)piperidin-4-ylamino)-6-(1-methyl-1H-pyrazol-4-yl)pyrrolo[1,2-b]pyridazine-3-carboxamide]",7.8 nM,9 nM
COc1ccc(-c2cc3c(N[C@@H]4CCN(C(=O)[C@@H](C)O)CC4(C)C)c(C(N)=O)cnn3c2)cn1 [Example 56],3.3 nM,
"COc1ccc(-c2cc3c(N[C@@H]4CCN(C(=O)C(N)=O)CC4(C)C)c(C(N)=O)cnn3c2)cn1 [Example 55, (R)-4-(1-(2-amino-2-oxoacetyl)-3,3-dimethylpiperidin-4-ylamino)-6-(6-methoxypyridin-3-yl)pyrrolo[1,2-b]pyridazine-3-carboxamide]",0.9 nM,4.4 nM
"C[C@@H]1[C@H]2CN(S(C)(=O)=O)C[C@H]2C[C@H]1Nc1c(C(N)=O)cnn2cc(-c3nnn(C)n3)cc12 [Example 67, 4-(((3aS,4R,5R,6aS)-4-methyl-2-(methylsulfonyl)octahydrocyclopenta[c]pyrrol-5-yl)amino)-6-(2-methyl-2H-tetrazol-5-yl)pyrrolo[1,2-b]pyridazine-3-carboxamide]",0.4 nM,1.3 nM
"N#Cc1ccccc1-c1cc2c(NC3CCOCC3)c(C(N)=O)cnn2c1 [Example 33, 6-(2-cyanophenyl)-4-(tetrahydro-2H-pyran-4-ylamino)pyrrolo[1,2-b]pyridazine-3-carboxamide]",40 nM,110 nM
"Cn1nccc1-c1cc2c(NC3CCOCC3)c(C(N)=O)cnn2c1 [Example 30, 6-(1-methyl-1H-pyrazol-5-yl)-4-(tetrahydro-2H-pyran-4-ylamino)pyrrolo[1,2-b]pyridazine-3-carboxamide]",110 nM,190 nM
"CC[C@@H]1CN(C(=O)C(C)(C)O)CC[C@H]1Nc1c(C(N)=O)cnn2cc(-c3ccnc(C)c3)cc12 [Example 131, 4-((3R,4R)-3-ethyl-1-(2-hydroxy-2-methylpropanoyl)piperidin-4-ylamino)-6-(2-methylpyridin-4-yl)pyrrolo[1,2-b]pyridazine-3-carboxamide]",7.1 nM,3.6 nM
"NC(=O)c1cnn2cc(-c3ccc(F)cc3)cc2c1NC1CCOCC1 [Example 28, 6-(4-fluorophenyl)-4-(tetrahydro-2H-pyran-4-ylamino)pyrrolo[1,2-b]pyridazine-3-carboxamide]",7.6 nM,21.6 nM
"NC(=O)c1cnn2cc(-c3cncnc3)cc2c1NC1CCOCC1 [Example 32, 6-(5-pyrimidinyl)-4-(tetrahydro-2H-pyran-4-ylamino)pyrrolo[1,2-b]pyridazine-3-carboxamide]",148 nM,813 nM
"C[C@@H]1[C@H]2CN(S(C)(=O)=O)C[C@H]2C[C@H]1Nc1c(C(N)=O)cnn2cc(-c3cnc(N)nc3)cc12 [Example 59, 6-(2-amino-5-pyrimidinyl)-4-(((3aS,4R,5R,6aS)-4-methyl-2-(methylsulfonyl)octahydrocyclopenta[c]pyrrol-5-yl)amino)pyrrolo[1,2-b]pyridazine-3-carboxamide]",0.6 nM,0.2 nM
"C[C@@H]1[C@H]2CN(C(=O)CO)C[C@H]2C[C@H]1Nc1c(C(N)=O)cnn2cc(-c3ccc(C(N)=O)cc3)cc12 [Example 61, 6-(4-carbamoylphenyl)-4-(((3aS,4R,5R,6aS)-2-glycoloyl-4-methyloctahydrocyclopenta[c]pyrrol-5-yl)amino)pyrrolo[1,2-b]pyridazine-3-carboxamide]",0.4 nM,0.3 nM
"CC[C@@H]1CN(S(C)(=O)=O)CC[C@H]1Nc1c(C(N)=O)cnn2cc(-c3cnn(CCC#N)c3)cc12 [Example 126, 6-(1-(2-cyanoethyl)-1H-pyrazol-4-yl)-4-((3R,4R)-3-ethyl-1-(methylsulfonyl)piperidin-4-ylamino)pyrrolo[1,2-b]pyridazine-3-carboxamide]",1.5 nM,1 nM
"CC(=O)N1C[C@H]2C[C@@H](Nc3c(C(N)=O)cnn4cc(-c5cnn(C)c5)cc34)[C@H](C)[C@H]2C1 [Example 93, 4-((3aS,4R,5R,6aS)-2-acetyl-4-methyloctahydrocyclopenta[c]pyrrol-5-ylamino)-6-(1-methyl-1H-pyrazol-4-yl)pyrrolo[1,2-b]pyridazine-3-carboxamide]",0.4 nM,

# The remaining lines, values ahead:
IC50 (GST-JAK3 enzyme),IC50 (GST-JAK1 enzyme),SMILES
,6.2 nM,"CS(=O)(=O)N1C[C@H](CF)[C@H](Nc2c(C(N)=O)cnn3cc(-c4ccc(C(F)(F)F)nc4)cc23)C1 (racemic) [Example 275, (+/−)-Cis-4-((-4-(fluoromethyl)-1-(methylsulfonyl)pyrrolidin-3-yl)amino)-6-(6-(trifluoromethyl)pyridin-3-yl)pyrrolo[1,2-b]pyridazine-3-carboxamide]"
1.5 nM,0.5 nM,"CNC(=O)c1cccc(-c2cc3c(N[C@@H]4CN(C(=O)C5(C#N)CC5)C[C@@H]4OC)c(C(N)=O)cnn3c2)c1 [Example 303, 4-(((3R,4S)-1-(1-cyanocyclopropanecarbonyl)-4-methoxypyrrolidin-3-yl)amino)-6-(3-(methylcarbamoyl)phenyl)pyrrolo[1,2-b]pyridazine-3-carboxamide]"
0.6 nM,0.3 nM,"C[C@H]1CN(c2ccc(C#N)cn2)C[C@H]1Nc1c(C(N)=O)cnn2cc(-c3cnn(CC(=O)N4CCC(F)(F)C4)c3)cc12 [Example 185, 4-(((3S,4S)-1-(5-cyanopyridin-2-yl)-4-methylpyrrolidin-3-yl)amino)-6-(1-(2-(3,3-difluoropyrrolidin-1-yl)-2-oxoethyl)-1H-pyrazol-4-yl)pyrrolo[1,2-b]pyridazine-3-carboxamide]"
6.6 nM,1.5 nM,"CO[C@H]1CN(C(=O)C2(C#N)CC2)C[C@H]1Nc1c(C(N)=O)cnn2cc(-c3ccc(C#N)cc3)cc12 [Example 308, 4-(((3R,4S)-1-(1-cyanocyclopropanecarbonyl)-4-methoxypyrrolidin-3-yl)amino)-6-(4-cyanophenyl)pyrrolo[1,2-b]pyridazine-3-carboxamide]"
7.5 nM,4.7 nM,"CNC(=O)c1ccc(-c2cc3c(N[C@@H]4CN(C(=O)OC)C[C@@H]4C)c(C(N)=O)cnn3c2)cn1 [Example 213, (3S,4S)-methyl 3-((3-carbamoyl-6-(6-(methylcarbamoyl)pyridin-3-yl)pyrrolo[1,2-b]pyridazin-4-yl)amino)-4-methylpyrrolidine-1-carboxylate]"
8.9 nM,8 nM,"COc1ccc(-c2cc3c(N[C@@H]4CN(S(C)(=O)=O)C[C@@H]4OC)c(C(N)=O)cnn3c2)cn1 [Example 315, 4-((3R,4S)-4-methoxy-1-(methylsulfonyl)pyrrolidin-3-ylamino)-6-(6-methoxypyridin-3-yl)pyrrolo[1,2-b]pyridazine-3-carboxamide]"
0.3 nM,0.8 nM,"CC[C@H]1CN(c2ncc(C#N)s2)C[C@H]1Nc1c(C(N)=O)cnn2cc(-c3cnn(C)c3)cc12 [Example 182, 4-((3S,4S)-1-(5-cyanothiazol-2-yl)-4-ethylpyrrolin-3-ylamino)-6-(1-methyl-1H-pyrazol-4-yl)pyrrolo[1,2-b]pyridazine-3-carboxamide]"
1.4 nM,1 nM,"CC[C@H]1CN(C(=O)C2(C#N)CC2)C[C@H]1Nc1c(C(N)=O)cnn2cc(-c3ccc(C)nc3)cc12 [Example 221, 4-((3S,4S)-1-(1-cyanocyclopropanecarbonyl)-4-ethylpyrrolidin-3-ylamino)-6-(6-methylpyridin-3-yl)pyrrolo[1,2-b]pyridazine-3-carboxamide]"
8.9 nM,0.9 nM,"COc1ncc(-c2cc3c(N[C@@H]4CN(C(=O)C5(C#N)CC5)C[C@@H]4CF)c(C(N)=O)cnn3c2)cn1 [Example 280, 4-((3S,4S)-1-(1-cyanocyclopropanecarbonyl)-4-(fluoromethyl)pyrrolidin-3-ylamino)-6-(2-methoxypyrimidin-5-yl)pyrrolo[1,2-b]pyridazine-3-carboxamide]"
